Assay results as given in ChEMBL document CHEMBL1201862, “PubChem BioAssay data set” (2004).
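Cells were grown in 96-well plates and exposed to each compound for 48 hours at five concentrations; endpoints were interpolated linearly between bracketing concentrations, or set to the highest concentration if not reached. GI50: concentration for 50% inhibition of growth.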 Activity calls are given as the source filed them. Rule as the data show it: active = GI50 up to about 1.1 µM and inactive = higher.

Tests used:
Test in all cases: NCI anticancer screen, dose series, 48 h
[1] = tested on: T47D
[2] = tested on: KM12
[3] = tested on: Malme-3M
[4] = tested on: HCT-116
[5] = tested on: A498
[6] = tested on: NCI/ADR-RES
[7] = tested on: HL-60
[8] = tested on: HT-29
[9] = tested on: UACC-62
[10] = tested on: SN12C
[11] = tested on: U-251
[12] = tested on: MDA-N
[13] = tested on: RXF 393
[14] = tested on: MDA-MB-231
[15] = tested on: UACC-257
[16] = tested on: PC-3
[17] = tested on: MDA-MB-435
[18] = tested on: NCI-H226
[19] = tested on: SW-620
[20] = tested on: ACHN
[21] = tested on: SK-OV-3
[22] = tested on: UO-31
[23] = tested on: CAKI-1
[24] = tested on: SF-268
[25] = tested on: SNB-75
[26] = tested on: OVCAR-4
[27] = tested on: 786-0
[28] = tested on: OVCAR-3
[29] = tested on: SNB-19
[30] = tested on: MCF7
[31] = tested on: RPMI-8226
[32] = tested on: MOLT-4
[33] = tested on: SR
[34] = tested on: IGROV-1
[35] = tested on: CCRF-CEM
[36] = tested on: NCI-H522
[37] = tested on: SK-MEL-28
[38] = tested on: SK-MEL-2
[39] = tested on: K562
[40] = tested on: LOX IMVI
[41] = tested on: COLO 205
[42] = tested on: HOP-62
[43] = tested on: OVCAR-5
[44] = tested on: SF-295
[45] = tested on: TK-10
[46] = tested on: BT-549
[47] = tested on: HCT-15
[48] = tested on: DU-145
[49] = tested on: Hs-578T
[50] = tested on: EKVX
[51] = tested on: OVCAR-8
[52] = tested on: NCI-H460
[53] = tested on: A549
[54] = tested on: SF-539
[55] = tested on: HOP-92
[56] = tested on: M14
[57] = tested on: NCI-H23

## CC(C)=NC(C(=O)O)C(C)(C)S (configuration not stated)
[1]
  GI50: > 100 µM (inactive)
[2]
  GI50: > 100 µM (inactive)
[3]
  GI50: > 100 µM (inactive)
[4]
  GI50: > 100 µM (inactive)
[5]
  GI50: > 100 µM (inactive)
[6]
  GI50: > 100 µM (inactive)
[7]
  GI50: > 100 µM (inactive)
[8]
  GI50: > 100 µM (inactive)
[9]
  GI50: > 100 µM (inactive)
[10]
  GI50: > 100 µM (inactive)
[11]
  GI50: > 100 µM (inactive)
[12]
  GI50: > 100 µM (inactive)
[13]
  GI50: > 100 µM (inactive)
[14]
  GI50: > 100 µM (inactive)
[15]
  GI50: > 100 µM (inactive)
[16]
  GI50: > 100 µM (inactive)
[17]
  GI50: > 100 µM (inactive)
[18]
  GI50: > 100 µM (inactive)
[19]
  GI50: > 100 µM (inactive)
[20]
  GI50: > 100 µM (inactive)
[21]
  GI50: > 100 µM (inactive)
[22]
  GI50: > 100 µM (inactive)
[23]
  GI50: > 100 µM (inactive)
[24]
  GI50: > 100 µM (inactive)
[25]
  GI50: > 100 µM (inactive)
[26]
  GI50: > 100 µM (inactive)
[27]
  GI50: > 100 µM (inactive)
[28]
  GI50: > 100 µM (inactive)
[29]
  GI50: > 100 µM (inactive)
[30]
  GI50: > 100 µM (inactive)
[31]
  GI50: > 100 µM (inactive)
[32]
  GI50: > 100 µM (inactive)
[33]
  GI50: > 100 µM (inactive)
[34]
  GI50: > 100 µM (inactive)
[35]
  GI50: > 100 µM (inactive)
[36]
  GI50: > 100 µM (inactive)
[37]
  GI50: > 100 µM (inactive)
[38]
  GI50: > 100 µM (inactive)
[39]
  GI50: > 100 µM (inactive)
[40]
  GI50: > 100 µM (inactive)
[41]
  GI50: > 100 µM (inactive)
[42]
  GI50: > 100 µM (inactive)
[43]
  GI50: > 100 µM (inactive)
[44]
  GI50: > 100 µM (inactive)
[45]
  GI50: > 100 µM (inactive)
[46]
  GI50: > 100 µM (inactive)
[47]
  GI50: > 100 µM
[48]
  GI50: > 100 µM (inactive)
[49]
  GI50: > 100 µM (inactive)
[50]
  GI50: > 100 µM (inactive)
[51]
  GI50: > 100 µM (inactive)
[52]
  GI50: > 100 µM (inactive)
[53]
  GI50: > 100 µM (inactive)
[54]
  GI50: > 100 µM (inactive)
[55]
  GI50: > 100 µM (inactive)
[56]
  GI50: > 100 µM (inactive)
[57]
  GI50: > 100 µM (inactive)
